Source: paper PMC4144712 (Biochemistry, 2014)

What was measured:
CCR5 = assay: Inhibition of FITC-DV1 binding in CCR5-expressing cell line; conditions: data not shown
CCR3 = assay: Inhibition of FITC-DV1 binding in CCR3-expressing cell line; conditions: data not shown
CXCR4 = CXCR4 (Homo sapiens, UniProt P61073); assay: CXCR4-FITC-DV1 competitive binding assay; conditions: CHO-CXCR4 cells; 800 nM FITC-DV1
Sequence of CXCR4 (P61073 whole entry): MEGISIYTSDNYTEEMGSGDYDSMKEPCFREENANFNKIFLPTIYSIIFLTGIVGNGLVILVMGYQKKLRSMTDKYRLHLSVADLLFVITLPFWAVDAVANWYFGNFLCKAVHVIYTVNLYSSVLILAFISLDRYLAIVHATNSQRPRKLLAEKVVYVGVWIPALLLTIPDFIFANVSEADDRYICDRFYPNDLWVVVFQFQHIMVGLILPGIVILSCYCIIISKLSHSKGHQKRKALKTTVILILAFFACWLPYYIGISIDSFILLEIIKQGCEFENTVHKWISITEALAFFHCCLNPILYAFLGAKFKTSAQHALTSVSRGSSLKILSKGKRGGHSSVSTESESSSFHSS

| Compound | inhibition of the binding of FITC-DV1 in CCR5-expressing cell line (CCR5) | inhibition of the binding of FITC-DV1 in CCR3-expressing cell line (CCR3) | inhibition of the binding of FITC-DV1 to CXCR4 (in words) (CXCR4) |
| --- | --- | --- | --- |
| RANTES: a common ligand of CCR5 and CCR3 | Neither ubiquitin, a ligand of CXCR4, nor RANTES (a common ligand of CCR5 and CCR3) inhibited the binding of FITC-DV1 | Neither ubiquitin, a ligand of CXCR4, nor RANTES (a common ligand of CCR5 and CCR3) inhibited the binding of FITC-DV1 | – |
| c1cc(CN2CCCNCCNCCCNCC2)ccc1CN1CCCNCCNCCCNCC1 [AMD3100] | – | – | inhibited the binding of FITC-DV1 to CXCR4 |
